Publication PMC11233931, “Remodeling tumor‐associated macrophage for anti‐cancer effects by rational design of irreversible inhibition of mitogen‐activated protein kinase‐activated protein kinase 2” (MedComm, 2024)
Where two headings read alike, the source gives them in different places.

Assays:
Assay in all cases: Eurofins kinase selectivity profile against 380 other human recombinant kinases (Table S2)
Assay type in all cases: biochemical
[1] = molecular target: T1, 380 human recombinant protein kinases (Homo sapiens, UniProt P06493); conditions: CDK1/cyclinB(h), read-out: Inhibition rate
T1 construct: purchased Eurofins (Celle Lévescault)
T1 sequence (P06493 whole entry): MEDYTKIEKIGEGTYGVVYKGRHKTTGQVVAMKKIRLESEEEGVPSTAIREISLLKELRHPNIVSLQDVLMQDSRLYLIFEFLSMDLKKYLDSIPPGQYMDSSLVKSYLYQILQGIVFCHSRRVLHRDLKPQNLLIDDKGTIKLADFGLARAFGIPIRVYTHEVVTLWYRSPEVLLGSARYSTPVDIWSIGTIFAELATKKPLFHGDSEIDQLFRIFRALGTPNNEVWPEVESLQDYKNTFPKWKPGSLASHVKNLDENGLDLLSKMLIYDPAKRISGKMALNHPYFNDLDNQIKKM
How it was run: (§1)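 Off-target profiling: one compound assayed by a commercial provider over 380 recombinant human protein kinases at various concentrations.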

[2] = molecular target: T2, 380 human recombinant protein kinases (Homo sapiens, UniProt P16591); conditions: Fer(h), read-out: Inhibition rate
T2 construct: purchased Eurofins (Celle Lévescault)
T2 sequence (P16591 whole entry): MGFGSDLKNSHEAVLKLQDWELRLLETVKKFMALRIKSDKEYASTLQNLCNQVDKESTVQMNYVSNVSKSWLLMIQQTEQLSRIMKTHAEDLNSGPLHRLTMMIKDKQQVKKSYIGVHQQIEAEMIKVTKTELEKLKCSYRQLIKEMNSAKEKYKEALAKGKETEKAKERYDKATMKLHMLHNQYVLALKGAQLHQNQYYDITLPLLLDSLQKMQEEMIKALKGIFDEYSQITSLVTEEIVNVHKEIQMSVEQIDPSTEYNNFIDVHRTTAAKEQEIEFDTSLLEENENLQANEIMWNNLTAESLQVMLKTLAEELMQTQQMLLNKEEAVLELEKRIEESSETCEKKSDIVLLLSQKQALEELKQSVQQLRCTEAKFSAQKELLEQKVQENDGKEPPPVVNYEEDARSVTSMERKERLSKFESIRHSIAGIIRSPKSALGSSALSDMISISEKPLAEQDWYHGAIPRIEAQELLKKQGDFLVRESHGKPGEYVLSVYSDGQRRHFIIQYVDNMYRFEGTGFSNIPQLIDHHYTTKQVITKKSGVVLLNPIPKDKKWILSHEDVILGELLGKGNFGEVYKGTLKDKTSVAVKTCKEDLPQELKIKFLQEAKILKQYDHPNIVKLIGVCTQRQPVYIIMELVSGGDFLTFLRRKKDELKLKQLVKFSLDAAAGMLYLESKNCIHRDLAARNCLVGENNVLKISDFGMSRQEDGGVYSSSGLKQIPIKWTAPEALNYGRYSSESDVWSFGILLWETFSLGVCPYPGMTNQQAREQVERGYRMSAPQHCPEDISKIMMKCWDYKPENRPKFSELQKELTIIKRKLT
How it was run: as §1

[3] = molecular target: T3, 380 human recombinant protein kinases (Homo sapiens, UniProt P28482); conditions: MAPK2(h), read-out: Inhibition rate
T3 construct: purchased Eurofins (Celle Lévescault)
T3 sequence (P28482 whole entry): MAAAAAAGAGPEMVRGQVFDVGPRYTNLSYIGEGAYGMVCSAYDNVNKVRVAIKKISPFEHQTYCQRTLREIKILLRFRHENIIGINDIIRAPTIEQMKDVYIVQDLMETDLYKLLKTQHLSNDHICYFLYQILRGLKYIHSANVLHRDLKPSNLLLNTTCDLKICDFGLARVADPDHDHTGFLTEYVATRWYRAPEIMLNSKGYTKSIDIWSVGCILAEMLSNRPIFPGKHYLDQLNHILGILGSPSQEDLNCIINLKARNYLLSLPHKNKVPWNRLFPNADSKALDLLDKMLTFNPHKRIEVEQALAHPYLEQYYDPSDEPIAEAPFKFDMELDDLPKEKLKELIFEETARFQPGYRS
How it was run: as §1

[4] = molecular target: T4, 380 human recombinant protein kinases (Homo sapiens, UniProt P42336); conditions: read-out: Inhibition rate (%); for inhibition at 0.01 µM: 10 nM; for inhibition at 0.1 µM: 100 nM; for inhibition at 1 µM: 1000 nM
T4 construct: purchased Eurofins (Celle Lévescault)
T4 sequence (P42336 whole entry): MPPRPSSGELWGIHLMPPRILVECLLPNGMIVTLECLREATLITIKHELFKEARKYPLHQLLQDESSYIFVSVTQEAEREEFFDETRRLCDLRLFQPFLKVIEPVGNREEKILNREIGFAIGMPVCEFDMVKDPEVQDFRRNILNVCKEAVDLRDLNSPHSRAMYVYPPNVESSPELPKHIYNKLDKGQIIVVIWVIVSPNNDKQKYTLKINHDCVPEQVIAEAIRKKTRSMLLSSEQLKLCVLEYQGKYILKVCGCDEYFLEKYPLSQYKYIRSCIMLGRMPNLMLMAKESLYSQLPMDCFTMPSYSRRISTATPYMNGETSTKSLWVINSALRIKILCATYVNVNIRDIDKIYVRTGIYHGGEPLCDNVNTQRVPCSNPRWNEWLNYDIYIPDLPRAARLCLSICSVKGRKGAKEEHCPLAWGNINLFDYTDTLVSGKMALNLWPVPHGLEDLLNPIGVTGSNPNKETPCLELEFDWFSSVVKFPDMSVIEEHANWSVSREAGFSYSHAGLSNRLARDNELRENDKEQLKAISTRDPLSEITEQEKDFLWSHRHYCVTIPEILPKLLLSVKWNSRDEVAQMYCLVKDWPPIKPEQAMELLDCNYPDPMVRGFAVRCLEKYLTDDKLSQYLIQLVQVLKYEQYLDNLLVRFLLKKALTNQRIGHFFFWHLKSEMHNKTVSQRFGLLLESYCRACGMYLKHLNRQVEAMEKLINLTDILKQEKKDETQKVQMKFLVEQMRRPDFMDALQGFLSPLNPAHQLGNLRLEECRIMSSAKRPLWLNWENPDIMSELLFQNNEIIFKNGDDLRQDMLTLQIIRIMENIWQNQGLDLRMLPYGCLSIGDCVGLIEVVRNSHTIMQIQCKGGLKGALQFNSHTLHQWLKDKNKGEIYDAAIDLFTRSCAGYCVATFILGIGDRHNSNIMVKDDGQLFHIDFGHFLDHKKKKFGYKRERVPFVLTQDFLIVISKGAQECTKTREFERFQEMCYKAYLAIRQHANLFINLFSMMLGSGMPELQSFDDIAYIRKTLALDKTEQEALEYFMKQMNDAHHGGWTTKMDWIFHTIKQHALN
How it was run: as §1

[5] = molecular target: T5, 380 human recombinant protein kinases (Homo sapiens, UniProt P57059); conditions: SIK(h), read-out: Inhibition rate (%)
T5 construct: purchased Eurofins (Celle Lévescault)
T5 sequence (P57059 whole entry): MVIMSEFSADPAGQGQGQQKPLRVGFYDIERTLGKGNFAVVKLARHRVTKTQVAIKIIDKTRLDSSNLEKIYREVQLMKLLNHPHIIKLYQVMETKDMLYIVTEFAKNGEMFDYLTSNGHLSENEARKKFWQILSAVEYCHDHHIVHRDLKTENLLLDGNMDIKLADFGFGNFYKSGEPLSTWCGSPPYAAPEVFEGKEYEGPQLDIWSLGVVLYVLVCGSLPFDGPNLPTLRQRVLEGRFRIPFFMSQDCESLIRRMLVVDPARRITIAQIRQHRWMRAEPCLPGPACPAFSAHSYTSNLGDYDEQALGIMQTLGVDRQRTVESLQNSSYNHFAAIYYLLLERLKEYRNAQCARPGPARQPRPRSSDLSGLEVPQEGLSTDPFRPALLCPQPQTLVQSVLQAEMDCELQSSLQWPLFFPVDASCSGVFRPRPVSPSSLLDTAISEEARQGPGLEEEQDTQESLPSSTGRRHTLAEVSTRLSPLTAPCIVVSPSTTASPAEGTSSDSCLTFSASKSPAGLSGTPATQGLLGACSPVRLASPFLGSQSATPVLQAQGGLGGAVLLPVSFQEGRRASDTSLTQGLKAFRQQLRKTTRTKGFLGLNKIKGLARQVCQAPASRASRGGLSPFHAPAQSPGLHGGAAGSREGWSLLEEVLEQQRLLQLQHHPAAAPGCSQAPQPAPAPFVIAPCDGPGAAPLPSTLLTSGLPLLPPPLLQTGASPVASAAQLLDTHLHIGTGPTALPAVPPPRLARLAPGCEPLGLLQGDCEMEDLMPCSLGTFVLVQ
How it was run: as §1

[6] = molecular target: T6, 380 human recombinant protein kinases (Homo sapiens, UniProt Q13554); conditions: CaMKIIβ(h), read-out: Inhibition rate
T6 construct: purchased Eurofins (Celle Lévescault)
T6 sequence (Q13554 whole entry): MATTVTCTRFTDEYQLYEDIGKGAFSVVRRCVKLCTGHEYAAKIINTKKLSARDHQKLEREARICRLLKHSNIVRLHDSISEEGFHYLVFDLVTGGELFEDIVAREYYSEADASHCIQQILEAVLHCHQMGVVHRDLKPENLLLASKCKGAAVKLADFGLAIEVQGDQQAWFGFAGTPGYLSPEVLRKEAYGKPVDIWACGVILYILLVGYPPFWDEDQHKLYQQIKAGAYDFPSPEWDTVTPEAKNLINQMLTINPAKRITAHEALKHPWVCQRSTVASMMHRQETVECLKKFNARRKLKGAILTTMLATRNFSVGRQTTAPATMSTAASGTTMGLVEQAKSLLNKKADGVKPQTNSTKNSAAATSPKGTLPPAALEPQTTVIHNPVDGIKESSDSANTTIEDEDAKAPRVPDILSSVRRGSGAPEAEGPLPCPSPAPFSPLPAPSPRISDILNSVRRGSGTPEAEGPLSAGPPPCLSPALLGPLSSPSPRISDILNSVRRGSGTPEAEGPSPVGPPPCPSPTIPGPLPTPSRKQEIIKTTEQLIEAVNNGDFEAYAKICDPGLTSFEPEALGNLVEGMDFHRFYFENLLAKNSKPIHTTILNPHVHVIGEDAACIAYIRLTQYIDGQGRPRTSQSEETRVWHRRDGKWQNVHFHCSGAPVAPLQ
How it was run: as §1

[7] = molecular target: T7, 380 human recombinant protein kinases (Homo sapiens, UniProt Q15831); conditions: LKB1(h), read-out: Inhibition rate
T7 construct: purchased Eurofins (Celle Lévescault)
T7 sequence (Q15831 1-433): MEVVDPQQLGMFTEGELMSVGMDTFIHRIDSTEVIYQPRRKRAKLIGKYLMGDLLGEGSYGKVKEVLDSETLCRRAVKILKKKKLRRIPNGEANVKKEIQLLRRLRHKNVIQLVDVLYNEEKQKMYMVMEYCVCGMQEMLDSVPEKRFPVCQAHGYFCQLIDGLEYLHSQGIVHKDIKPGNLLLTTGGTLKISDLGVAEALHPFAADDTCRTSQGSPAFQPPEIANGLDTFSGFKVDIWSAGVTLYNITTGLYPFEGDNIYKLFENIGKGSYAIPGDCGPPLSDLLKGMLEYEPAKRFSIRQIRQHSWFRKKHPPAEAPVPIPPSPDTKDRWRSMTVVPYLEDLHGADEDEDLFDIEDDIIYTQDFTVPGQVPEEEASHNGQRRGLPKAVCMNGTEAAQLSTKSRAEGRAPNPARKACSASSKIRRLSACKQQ
How it was run: as §1

[8] = molecular target: T8, 380 human recombinant protein kinases (Homo sapiens, UniProt Q9UBE8); conditions: NLK(h), read-out: Inhibition rate
T8 construct: purchased Eurofins (Celle Lévescault)
T8 sequence (Q9UBE8 1-527): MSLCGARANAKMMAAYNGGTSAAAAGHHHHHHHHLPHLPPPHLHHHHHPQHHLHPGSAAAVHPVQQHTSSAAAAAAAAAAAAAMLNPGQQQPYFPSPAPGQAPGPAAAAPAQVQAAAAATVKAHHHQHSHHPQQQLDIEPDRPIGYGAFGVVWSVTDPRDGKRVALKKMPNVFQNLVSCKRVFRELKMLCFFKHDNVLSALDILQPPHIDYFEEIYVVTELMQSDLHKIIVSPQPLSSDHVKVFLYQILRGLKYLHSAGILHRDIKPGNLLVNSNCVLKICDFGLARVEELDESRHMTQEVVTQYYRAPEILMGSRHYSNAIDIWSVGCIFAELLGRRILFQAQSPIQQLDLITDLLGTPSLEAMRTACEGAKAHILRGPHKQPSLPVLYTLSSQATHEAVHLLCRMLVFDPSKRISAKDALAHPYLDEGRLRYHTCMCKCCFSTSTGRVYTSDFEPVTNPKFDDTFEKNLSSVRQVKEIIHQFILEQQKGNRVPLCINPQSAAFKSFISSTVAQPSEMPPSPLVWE
How it was run: as §1

[9] = molecular target: T9, 380 human recombinant protein kinases (Homo sapiens, UniProt Q9Y2U5); conditions: MEKK2(h), read-out: Inhibition rate
T9 construct: purchased Eurofins (Celle Lévescault)
T9 sequence (Q9Y2U5 1-619): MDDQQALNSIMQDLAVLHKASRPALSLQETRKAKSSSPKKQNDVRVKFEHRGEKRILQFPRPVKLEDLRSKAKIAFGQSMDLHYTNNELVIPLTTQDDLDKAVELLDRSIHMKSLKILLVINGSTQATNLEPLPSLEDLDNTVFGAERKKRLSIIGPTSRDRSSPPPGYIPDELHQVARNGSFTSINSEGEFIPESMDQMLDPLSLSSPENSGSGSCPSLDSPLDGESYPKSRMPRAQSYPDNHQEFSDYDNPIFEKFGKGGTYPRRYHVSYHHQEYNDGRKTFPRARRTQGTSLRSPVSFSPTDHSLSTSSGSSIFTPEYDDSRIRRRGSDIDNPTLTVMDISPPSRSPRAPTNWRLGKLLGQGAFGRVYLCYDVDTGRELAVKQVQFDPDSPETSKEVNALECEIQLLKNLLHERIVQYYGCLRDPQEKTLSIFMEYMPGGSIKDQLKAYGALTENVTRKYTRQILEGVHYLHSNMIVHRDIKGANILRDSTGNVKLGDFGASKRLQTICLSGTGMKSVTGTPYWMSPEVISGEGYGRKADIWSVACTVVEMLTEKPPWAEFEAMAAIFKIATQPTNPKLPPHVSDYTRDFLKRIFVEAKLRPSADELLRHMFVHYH
How it was run: as §1

Structure (SMILES): C=CC(=O)Nc1cc(-c2cc(-c3cc4c([nH]3)CCNC4=O)ccn2)ccc1OC(F)(F)F [compound 11]
- inhibition at 0.01 µM ([1]; 10 nM): 0%
- inhibition at 0.1 µM ([1]; 100 nM): 10%
- inhibition at 1 µM ([1]; 1000 nM): 43%
- inhibition at 0.01 µM ([2]; 10 nM): -11%
- inhibition at 0.1 µM ([2]; 100 nM): -18%
- inhibition at 1 µM ([2]; 1000 nM): -11%
- inhibition at 0.01 µM ([3]; 10 nM): -5%
- inhibition at 0.1 µM ([3]; 100 nM): -7%
- inhibition at 1 µM ([3]; 1000 nM): 13%
- inhibition at 0.01 µM ([4]; PI3 Kinase (p110α/p65α)(h)): 3%
- inhibition at 0.1 µM ([4]; PI3 Kinase (p110α/p65α)(h)): 0%
- inhibition at 1 µM ([4]; PI3 Kinase (p110α/p65α)(h)): 1%
- inhibition at 0.01 µM ([4]; PI3 Kinase (p110α/p85α)(h)): -1%
- inhibition at 0.1 µM ([4]; PI3 Kinase (p110α/p85α)(h)): 0%
- inhibition at 1 µM ([4]; PI3 Kinase (p110α/p85α)(h)): -1%
- inhibition at 0.01 µM ([5]; 10 nM): 2%
- inhibition at 0.1 µM ([5]; 100 nM): 4%
- inhibition at 1 µM ([5]; 1000 nM): -3%
- inhibition at 0.01 µM ([6]; 10 nM): -1%
- inhibition at 0.1 µM ([6]; 100 nM): 9%
- inhibition at 1 µM ([6]; 1000 nM): 14%
- inhibition at 0.01 µM ([7]; 10 nM): -5%
- inhibition at 0.1 µM ([7]; 100 nM): -3%
- inhibition at 1 µM ([7]; 1000 nM): -6%
- inhibition at 0.01 µM ([8]; 10 nM): 6%
- inhibition at 0.1 µM ([8]; 100 nM): 16%
- inhibition at 1 µM ([8]; 1000 nM): 42%
- inhibition at 0.01 µM ([9]; 10 nM): -3%
- inhibition at 0.1 µM ([9]; 100 nM): 2%
- inhibition at 1 µM ([9]; 1000 nM): -2%
